In paper PMC10975076, “Trypanocidal and Anti-Inflammatory Effects of Three ent-Kaurane Diterpenoids from Gymnocoronis spilanthoides var. subcordata (Asteraceae)” (Pharmaceutics, 2024):
Like-named read-outs stand apart in the source and are kept apart here.

How the values were obtained:
[1] = test system: T. cruzi amastigotes (Tulahuen strain expressing β-galactosidase); assay: In vitro activity against amastigotes in infected Vero cells, β-galactosidase/CPRG readout; type: cell-based; settings: Trypanosoma cruzi, 120 h, intracellular amastigotes in Vero cells, 5 days
Procedure: Cultures of Trypanosoma cruzi epimastigotes (RA strain) were maintained through weekly passages in LIT medium supplemented with 10% fetal bovine serum at 28 °C. Trypanosoma cruzi bloodstream trypomastigotes (RA strain) were obtained from infected CF1 mice by cardiac puncture 15 days after infection at the peak of parasitemia while transfected trypomastigotes expressing β-galactosidase (Clone C4, e Tulahuen strain) were obtained from infected Vero cells.
The activity of compounds 1–3 on the intracellular forms of T. cruzi was evaluated. Vero cells (5 × 10^3/well) were infected with culture-derived trypomastigotes of T. cruzi from the Tulahuen strain expressing β-galactosidase (MOI: 10). After an O.N. incubation at 37 °C, and 5% CO2, non-infecting parasites were washed out and infected cells were incubated with increasing concentrations of the compounds (0.001–50 µg/mL). Cells treated with DMSO or benznidazole and non-infected cells were included as controls. After 5 days, cells were lysed with 1% Nonidet P-40, and chlorophenol red-β-D-galactopyranoside (CPRG) (100 μM) was added as a substrate for the β-galactosidase enzyme. The plate was then incubated for 4 h at 37 °C and β-galactosidase activity was determined by measuring the absorbance at 570 nm. The percentage of inhibition for each concentration of compounds was calculated as: 100 − {[(absorbance of treated infected cells)/(absorbance of untreated infected cells)] × 100}.

[2] = test system: IL-10 production, Raw-Blue macrophages; assay: IL-10 in RAW-Blue supernatants, ELISA; type: cell-based, murine; settings: increasing concentrations (1, 10 µg/mL), 24 h, dose-dependent
Procedure: (§1) The production of the cytokines IL-10 and TNF was also determined in cell supernatant from these samples with an ELISA assay (R&D System, Minneapolis, MN, USA; BD Pharmingen, Franklin Lakes, NJ, USA).

[3] = Cytotoxicity assay on splenocytes, propidium iodide flow cytometry; type: cell-based, mice; settings: BALB/c, mouse, murine splenocytes
Procedure: The cytotoxicity of the isolated compounds was evaluated using splenocytes obtained from BALB/c mice. Primary cell cultures (1.5 × 10^5) were incubated with different concentrations of the isolated phytochemicals (5–200 μg/mL) in RPMI medium supplemented with 10% fetal bovine serum. After 48 h of incubation at 37 °C (5% CO2), the cells were harvested, washed once with PBS and stained with 2.5 μg/mL propidium iodide (PI) for 5 min at room temperature. Subsequently, cell death was assessed via flow cytometry using a BD FACSaria II cytometer. Cells incubated with DMSO were used as 100% viability control, and the death percentage was calculated according to the following formula: {1 − [(% PI^− cells treated)/(% PI^− cells of the viability control)] × 100}.

[4] = test system: type-I Interferon (IFN) pathway, RAW-Lucia ISG cells; assay: Type-I interferon reporter assay in RAW-Lucia ISG cells, Lucia luciferase; type: cell-based, murine; settings: 24 h
Procedure: The effect of compound 1 on a type-I Interferon (IFN) reporter cell line stimulated with LPS was studied. RAW-Lucia cells express the Lucia luciferase enzyme under the control of the ISG54 promoter that responds to an IFN-stimulated response element, which is activated by several Interferon Regulatory Factors (IRFs).
RAW-Lucia ISG cells I (InvivoGen, San Diego, CA, USA) (100 μL) were cultured (100,000 cells/well) with DMEM at 37 °C in a 5% CO2 atmosphere to be stimulated with LPS (0.5 µg/mL) or a combination of LPS and compound 1 (1 and 10 µg/mL). Unstimulated cells were included as controls. After a 24 h incubation, the supernatants of each well were collected in order to quantify the luciferase activity by measuring the luminescence generated after the addition of the QUANTI-Luc reagent (InvivoGen) according to the manufacturer’s instructions with a PerkinElmer Victor3 luminometer.

[5] = test system: T. cruzi (RA strain) infection in BALB/c mice; assay: In vivo trypanocidal activity in murine model of T. cruzi infection; set-up: species or system Trypanosoma cruzi; settings: for Hazard ratio (logrank) vs vehicle: Kaplan–Meier survival; for decrease in the area under the parasitemia curve (AUC): fold vs untreated control group
[6] = test system: iNOS expression and NO production; set-up: method as in doi:10.7324/JAPS.2023.95766; settings: cited from earlier work
[7] = test system: TNF secretion, Raw-Blue macrophages; assay: TNF in RAW-Blue supernatants, capture ELISA; type: cell-based, murine; settings: 24 h
Procedure: as §1

[8] = test system: nitric oxide production, Raw-Blue cells; assay: Nitric oxide production, Griess reaction on RAW-Blue supernatants; type: cell-based, murine
Procedure: The Griess reaction assay was performed to determine the effect of compound 1 on Nitric Oxide production. The same supernatant samples obtained in Section 2.8.2 (50 µL) were combined with 100 µL of Griess reagent. After incubation at room temperature for 30 min, absorbance was measured at 540 nm. A calibration curve was constructed with 1–250 µM of […] to extrapolate the nitrite concentration in the tested samples.

[9] = test system: T. cruzi epimastigotes; assay: Transmission electron microscopy of treated epimastigotes; type: cell-based, Trypanosoma cruzi; settings: 20 µM
Procedure: All procedures were carried out according to Brengio et al.. Epimastigotes from T. cruzi were treated with 20 µM of compound 1 for either 48 h or 72 h. Then, the parasites were centrifuged at 1000× g for 10 min and fixed with 2.5% glutaraldehyde. Subsequently, they were washed three times with PBS and postfixed overnight with 2% OsO4. After washing twice with PBS, cells were stained with 1% uranyl acetate. The samples were dehydrated sequentially in ethanol and acetone and embedded in Epon 812. Ultrathin slices of 60 nm were obtained using an automatic Leica-ultracut R ultramicrotome and observed with a Microscope Zeiss EM900 (Zeiss, Oberkochen, Germany).

[10] = test system: T. cruzi epimastigotes (RA strain); assay: In vitro activity against epimastigotes, [3H]-thymidine uptake assay; type: cell-based; settings: Trypanosoma cruzi
[11] = test system: NF-kB, RAW-Blue cells; assay: NF-kB reporter assay in RAW-Blue cells, SEAP activity; type: cell-based, murine; settings: 24 h
Procedure: The effect of compound 1 was evaluated on a cell line that secretes alkaline phosphatase as a surrogate marker for the secretion of NF-kB. RAW-Blue cells (InvivoGen) (100 μL) were seeded in a 96-well plate (100,000 cells/well) with DMEM at 37 °C in a 5% CO2 atmosphere. […] Untreated cells were included as controls. The supernatants were collected and absorbance at 620–655 nm was measured after the addition of the Quanti-Blue reagent (InvivoGen) in a microplate reader. Levels of NF-kB were calculated following the manufacturer’s instructions.

[12] = read-out: IC50 ± SEM Amastigotes
[13] = value in brackets, read-out: IC50 Amastigotes (converted)
[14] = primary splenocytes, read-out: CC50 µg/mL ± SEM
[15] = primary splenocytes, read-out: CC50
[16] = LPS 0.5 µg/mL, 1 or 10 µg/mL compound
[17] = infected BALB/c mice, 1 mg/kg/day i.p. each for 5 days
[18] = T. cruzi epimastigotes, 72 h incubation, read-out: IC50 ± SEM Epimastigotes
[19] = T. cruzi epimastigotes, 72 h incubation, value in brackets, read-out: IC50 Epimastigotes (converted)

Compound | IC50 [1, 12] | IC50 [1, 13] | CC50 at 48 h [3, 14] | CC50 at 48 h [3, 15] | Hazard ratio (logrank) vs vehicle ([5]; 1 mg/kg/day i.p. for 5 days) | decrease in the area under the parasitemia curve (AUC) [5, 17] | IC50 [10, 18] | IC50 [10, 19] | other results
C=C1C(=O)[C@@]23CC[C@@H]4[C@](C)(C(=O)O)CCC[C@@]4(C)[C@]2(O)[C@@H](O)C[C@@H]1C3 (single isomer, unassigned; ent-9) [Compound 1, ent-9α,11α-dihydroxy-15-oxo-kaur-16-en-19-oic acid] | 2.1 ± 0.3 µg/mL | 6.1 µM | 112 ± 3.4 µg/mL | 322 µM | 0.9 | two-fold | 3.7 ± 0.5 µg/mL | 10.6 µM | IL-10 production and secretion [2]: increase in the production and secretion of IL-10; Lucia luciferase activity after LPS stimulation [4, 16]: reduction in enzymatic activity; basal Lucia luciferase activity ([4]; unstimulated control cells, 1 or 10 µg/mL): did not affect the basal levels of Lucia luciferase activity; parasitemia levels ([5]; infected BALB/c mice, 1 mg/kg/day i.p. for 5 days, vs vehicle): significant decrease in parasitemia levels; iNOS expression and NO production in vitro [6]: inhibit iNOS expression and NO production; TNF levels after LPS stimulation ([7]; LPS 0.5 µg/mL, 1 and 10 µg/mL compound): significantly reduced; basal levels of TNF ([7]; without LPS, increasing concentrations (1, 10 µg/mL)): significant decrease in the basal levels of TNF; nitric oxide production (nitrite) with TLR ligands ([8]; CpG 100 µg/mL, Poly(I:C) 100 µg/mL or LPS 0.5 µg/mL, compound 2.5 µg/mL, 24 h): significant decrease in nitric oxide production; nitric oxide production (nitrite levels) after LPS ([8]; LPS-stimulated Raw-Blue macrophages, dose-dependent): significantly inhibited nitric oxide production; ultrastructural effect on epimastigotes (TEM) ([9]; 48 h): formation of abnormal cytosolic membranous structures; ultrastructural effect on epimastigotes (TEM) ([9]; 72 h): Abnormal cytosolic membranous structures; NF-kB activation by TLR agonists (SEAP activity) ([11]; CpG 100 µg/mL, Poly(I:C) 100 µg/mL or LPS 0.5 µg/mL, compound 2.5 µg/mL): significantly inhibit NF-kB activation; LPS-mediated activation of NF-kB (SEAP activity) [11, 16]: dose-dependent inhibition
O=C(Cn1ccnc1[N+](=O)[O-])NCc1ccccc1 [Benznidazole, benznidazole, reference compound] | 0.5 ± 0.04 µg/mL | 1.9 µM | 45.3 ± 1.8 µg/mL | 81.5 µM | 1.1 | 1.6 | – | – | mice remaining alive at the end of the acute infection phase ([5]; 1 mg/kg/day i.p. each for 5 days): none; IC50 ([10]; 72 h, read-out: IC50 Epimastigotes): 4.2 µM; IC50 ([10]; 72 h, read-out: IC50 ± SEM Epimastigotes): 1.08 ± 0.2 µg/mL
C=C1C(=O)[C@@]23CC[C@H]4[C@@](C)(CCC[C@@]4(C)C(=O)O)[C@@H]2[C@@H](O)C[C@@H]1C3 (single isomer, unassigned; ent-11) [Compound 3, ent-11α-hydroxy-15-oxo-kaur-16-en-19-oic acid] | 20.1 ± 8.2 µg/mL | 60.6 µM | – | – | – | – | 1.6 ± 0.6 µg/mL | 4.8 µM | CC50 at 48 h ([3]; read-out: CC50 µg/mL ± SEM): 4.9 ± 1.6 µg/mL; CC50 at 48 h ([3]; read-out: CC50): 14.8 µM
C[C@H]1C(=O)[C@@]23CC[C@H]4[C@@](C)(CCC[C@@]4(C)C(=O)O)[C@@H]2[C@@H](O)C[C@@H]1C3 [Compound 2, (16R)-ent-11α-hydroxy-15-oxokauran-19-oic acid] | 6.5 ± 0.2 µg/mL | 19.5 µM | 7.8 ± 0.2 µg/mL | 23.3 µM | – | – | 5.2 ± 0.3 µg/mL | 15.9 µM | –
